In US8304371B2, “Insecticidal arylpyrrolines” (Bayer Cropscience AG, priority 2008, dated 2012):

Tests used:
Type in all cases: in vivo
[1] = test system: Tobacco Cutworm (Spodoptera litura) Larvae; experiment: Test against tobacco cutworm (Spodoptera litura) larvae, leaf dip; settings: active compound concentration 100 ppm; third-instar larvae; after 7 days
Method: (§1) Unless nomentioned otherwise, the test solutions were prepared as follows:
(§2) Containing as solvent: Dimethylformamide, 3 parts by weight; and as emulsifier: Polyoxyethylene alkyl phenyl ether, 1 part by weight
(§3) To prepare the test solution, 1 part by weight of an active compound is mixed with the above-mentioned amount of solvent containing the above-mentioned amount of emulsifier, and the mixture is diluted with water to the desired concentration.
The leaves of sweet potato were immersed in the test solution at the appropriate concentration, and the leaves were dried in air. The leaves were then placed in a petri dish having a diameter of 9 cm, and ten third-instar larvae of tobacco cutworm were released therein. The petri dish was placed in a temperature chamber at 25° C. After 2 days and 4 days sweet potato leaves were additionally added. After 7 days, the number of dead larvae was counted, to calculate the insecticidal activity. An insecticidal activity of 100% means that all larvae were killed, whereas an insecticidal activity of 0% means that no larva was killed. In the current test, the results of two petri dishes for each partition were averaged.

[2] = test system: Cucurbit Leaf Beetle (Aulacophora femoralis); experiment: Test against cucurbit leaf beetle, cucumber leaf dip; settings: active compound concentration 100 ppm; second-instar larvae; after 7 days
Method: as §1, §2, §3
Cucumber leaves were immersed in the test solution at the appropriate concentration, and the leaves were dried in air. The leaves were then placed in a plastic cup containing aseptically sterilized black soil, and five second-instar larvae of cucurbit leaf beetle were released therein. After 7 days, the number of dead larvae was counted, and thus the insecticidal activity was calculated. An insecticidal activity of 100% means that all beetles were killed, whereas an insecticidal activity of 0% means that no beetle was killed.

[3] = test system: Two-Spotted Spider Mite (Tetranvchus urticae); experiment: Test against two-spotted spider mite, spray on kidney bean; settings: active compound concentration 100 ppm; adult mites; after 7 days
Method: as §1, §2, §3
50 to 100 adult two-spotted spider mites were inoculated onto the leaves of kidney beans at the two-true leaf stage, which plant had been cultivated in a pot having a diameter of 6 cm. After one day, test solution at the appropriate concentration was sprayed thereon in a sufficient amount using a spray gun. After the spraying, the plant pot was placed inside a greenhouse, and after 7 days, the acaricidal activity was calculated. An acaricidal activity of 100% means that all mites were killed, whereas an acaricidal activity of 0% means that no mite was killed.

[4] = test system: Strain of Green Peach Aphid (Mvzus persicas) which is Resistant to Organic Phosphorus and Carbamate Agents; experiment: Test against resistant green peach aphid, spray on egg plant; settings: active compound concentration 500 ppm; after 7 days
Method: as §1, §2, §3
About 30 to 50 of the resistant green peach aphids were inoculated per seedling, onto the leaves of egg plant at the two-true leaf stage, which plant had been cultivated in a pot having a diameter of 6 cm. One day after the inoculation, the test solution at the appropriate concentration was sprayed thereon in a sufficient amount using a spray gun. After the spraying, the plant pot was placed in a greenhouse at 28° C., and after 7 days, the insecticidal activity was calculated. An insecticidal activity of 100% means that all aphids were killed, whereas an insecticidal activity of […] means that no aphid was killed. The test was repeated two times.

CSCC(=O)NCc1ccc(C2=NCC(c3cc(Cl)c(Cl)c(Cl)c3)(C(F)(F)F)C2)cc1C(F)(F)F (racemic) [2-209]
100%: insecticidal activity [1] | insecticidal activity [2] | acaricidal activity [3] | insecticidal activity [4]

O=C(CC(F)(F)F)NCc1ccc(C2=NCC(c3cc(Cl)cc(Cl)c3)(C(F)(F)F)C2)cc1C(F)(F)F (racemic) [2-211]
100%: insecticidal activity [2] | acaricidal activity [3] | insecticidal activity [4]

O=C(NCc1ccc(C2=NCC(c3cc(Cl)cc(Cl)c3)(C(F)(F)F)C2)cc1C(F)(F)F)C1CC1 (racemic) [2-212]
100%: insecticidal activity [2] | acaricidal activity [3] | insecticidal activity [4]

N#Cc1cc(C2=NCC(c3cc(C(F)(F)F)cc(C(F)(F)F)c3)(C(F)(F)F)C2)ccc1-n1cncn1 (centres unmarked) [1-72]
100%: insecticidal activity [1] | insecticidal activity [2] | acaricidal activity [3] | insecticidal activity [4]

N#Cc1cc(C2=NCC(c3cc(Br)cc(Br)c3)(C(F)(F)F)C2)ccc1-n1cncn1 (centres unmarked) [1-94]
100%: insecticidal activity [1] | insecticidal activity [2] | acaricidal activity [3] | insecticidal activity [4]

N#Cc1cc(C2=NCC(c3cc(Cl)cc(C(F)(F)F)c3)(C(F)(F)F)C2)ccc1-n1cncn1 (centres unmarked) [1-95]
100%: insecticidal activity [1] | insecticidal activity [2] | acaricidal activity [3] | insecticidal activity [4]

CCC(=O)NCc1ccc(C2=NCC(c3cc(Cl)cc(Cl)c3)(C(F)(F)F)C2)cc1Br (centres unmarked) [2-19]
100%: insecticidal activity [1] | insecticidal activity [2]

O=C(NCc1ccc(C2=NCC(c3cc(Cl)cc(Cl)c3)(C(F)(F)F)C2)cc1Br)C1CC1 (centres unmarked) [2-153]
100%: insecticidal activity [1] | insecticidal activity [2]

O=C(CC(F)(F)F)NCc1ccc(C2=NCC(c3cc(Cl)cc(Cl)c3)(C(F)(F)F)C2)cc1Br (centres unmarked) [2-154]
100%: insecticidal activity [1] | insecticidal activity [2] | acaricidal activity [3]

CC(=O)NCc1ccc(C2=NCC(c3cc(Cl)c(Cl)c(Cl)c3)(C(F)(F)F)C2)cc1Cl (centres unmarked) [2-156]
100%: insecticidal activity [1] | insecticidal activity [2] | acaricidal activity [3] | insecticidal activity [4]

CCC(=O)NCc1ccc(C2=NCC(c3cc(Cl)c(Cl)c(Cl)c3)(C(F)(F)F)C2)cc1Cl (centres unmarked) [2-157]
100%: insecticidal activity [1] | insecticidal activity [2] | acaricidal activity [3] | insecticidal activity [4]

O=C(NCc1ccc(C2=NCC(c3cc(Cl)c(Cl)c(Cl)c3)(C(F)(F)F)C2)cc1Cl)C1CC1 (centres unmarked) [2-158]
100%: insecticidal activity [1] | insecticidal activity [2] | acaricidal activity [3] | insecticidal activity [4]

O=C(CC(F)(F)F)NCc1ccc(C2=NCC(c3cc(Cl)c(Cl)c(Cl)c3)(C(F)(F)F)C2)cc1Cl (centres unmarked) [2-159]
100%: insecticidal activity [1] | insecticidal activity [2] | acaricidal activity [3] | insecticidal activity [4]

CC(=O)NCc1ccc(C2=NCC(c3cc(Cl)cc(Cl)c3)(C(F)(F)F)C2)cc1C(F)(F)F (centres unmarked) [2-160]
100%: insecticidal activity [1] | insecticidal activity [2] | acaricidal activity [3] | insecticidal activity [4]

CC(=O)NCc1ccc(C2=NCC(c3cc(Cl)c(Cl)c(Cl)c3)(C(F)(F)F)C2)cc1C(F)(F)F (centres unmarked) [2-161]
100%: insecticidal activity [1] | insecticidal activity [2] | acaricidal activity [3] | insecticidal activity [4]

CCC(=O)NCc1ccc(C2=NCC(c3cc(Cl)c(Cl)c(Cl)c3)(C(F)(F)F)C2)cc1C(F)(F)F (centres unmarked) [2-162]
100%: insecticidal activity [1] | insecticidal activity [2] | acaricidal activity [3] | insecticidal activity [4]

O=C(NCc1ccc(C2=NCC(c3cc(Cl)c(Cl)c(Cl)c3)(C(F)(F)F)C2)cc1C(F)(F)F)C1CC1 (centres unmarked) [2-163]
100%: insecticidal activity [1] | insecticidal activity [2] | acaricidal activity [3] | insecticidal activity [4]

O=C(CC(F)(F)F)NCc1ccc(C2=NCC(c3cc(Cl)c(Cl)c(Cl)c3)(C(F)(F)F)C2)cc1C(F)(F)F (centres unmarked) [2-164]
100%: insecticidal activity [1] | insecticidal activity [2] | acaricidal activity [3] | insecticidal activity [4]

CC(=O)NCc1ccc(C2=NCC(c3cc(C(F)(F)F)cc(C(F)(F)F)c3)(C(F)(F)F)C2)cc1C(F)(F)F (centres unmarked) [2-165]
100%: insecticidal activity [1] | insecticidal activity [2] | acaricidal activity [3] | insecticidal activity [4]

CCC(=O)NCc1ccc(C2=NCC(c3cc(C(F)(F)F)cc(C(F)(F)F)c3)(C(F)(F)F)C2)cc1C(F)(F)F (centres unmarked) [2-166]
100%: insecticidal activity [1] | insecticidal activity [2] | acaricidal activity [3] | insecticidal activity [4]

O=C(NCc1ccc(C2=NCC(c3cc(C(F)(F)F)cc(C(F)(F)F)c3)(C(F)(F)F)C2)cc1C(F)(F)F)C1CC1 (centres unmarked) [2-167]
100%: insecticidal activity [1] | insecticidal activity [2] | acaricidal activity [3] | insecticidal activity [4]

O=C(CC(F)(F)F)NCc1ccc(C2=NCC(c3cc(C(F)(F)F)cc(C(F)(F)F)c3)(C(F)(F)F)C2)cc1C(F)(F)F (centres unmarked) [2-168]
100%: insecticidal activity [1] | insecticidal activity [2] | acaricidal activity [3] | insecticidal activity [4]

O=C(NCc1ccc(C2=NCC(c3cc(Cl)c(Cl)c(Cl)c3)(C(F)(F)F)C2)cc1Br)C1CC1 (centres unmarked) [2-170]
100%: insecticidal activity [1] | insecticidal activity [2] | acaricidal activity [3] | insecticidal activity [4]

O=C(CC(F)(F)F)NCc1ccc(C2=NCC(c3cc(Cl)c(Cl)c(Cl)c3)(C(F)(F)F)C2)cc1Br (centres unmarked) [2-171]
100%: insecticidal activity [1] | insecticidal activity [2] | acaricidal activity [3] | insecticidal activity [4]

O=C(NCc1ccc(C2=NCC(c3cc(Cl)c(Cl)c(C(F)(F)F)c3)(C(F)(F)F)C2)cc1Br)C1CC1 (centres unmarked) [2-172]
100%: insecticidal activity [1] | insecticidal activity [2] | acaricidal activity [3] | insecticidal activity [4]

O=C(CC(F)(F)F)NCc1ccc(C2=NCC(c3cc(Cl)c(Cl)c(C(F)(F)F)c3)(C(F)(F)F)C2)cc1Br (centres unmarked) [2-173]
100%: insecticidal activity [1] | insecticidal activity [2] | acaricidal activity [3] | insecticidal activity [4]

O=C(NCc1ccc(C2=NCC(c3cc(C(F)(F)F)cc(C(F)(F)F)c3)(C(F)(F)F)C2)cc1Br)C1CC1 (centres unmarked) [2-179]
100%: insecticidal activity [1] | insecticidal activity [2] | acaricidal activity [3] | insecticidal activity [4]

O=C(CC(F)(F)F)NCc1ccc(C2=NCC(c3cc(C(F)(F)F)cc(C(F)(F)F)c3)(C(F)(F)F)C2)cc1Br (centres unmarked) [2-180]
100%: insecticidal activity [1] | insecticidal activity [2] | acaricidal activity [3] | insecticidal activity [4]

CCNC(=O)NCc1ccc(C2=NCC(c3cc(Cl)c(Cl)c(Cl)c3)(C(F)(F)F)C2)cc1Br (centres unmarked) [2-195]
100%: insecticidal activity [1] | insecticidal activity [2] | acaricidal activity [3] | insecticidal activity [4]

CCC(=O)NCc1ccc(C2=NCC(c3cc(Cl)c(Cl)c(C(F)(F)F)c3)(C(F)(F)F)C2)cc1C(F)(F)F (centres unmarked) [2-205]
100%: insecticidal activity [1] | insecticidal activity [2] | acaricidal activity [3] | insecticidal activity [4]
